In PubChem BioAssay (NCI):
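Interpolation was linear, between the two tested concentrations surrounding the appropriate level; five concentrations were tested over 48 hours in 96-well plates. TGI: concentration producing complete growth inhibition.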

Experiments:
Assay in all cases: growth of human tumour cells (NCI), 48 h
NCI-H460 lung = tested on: NCI-H460 lung
OVCAR-4 ovarian = tested on: OVCAR-4 ovarian
DMS 114 small cell lung = tested on: DMS 114 small cell lung
RPMI-8226 leukemia = tested on: RPMI-8226 leukemia
KM20L2 colon = tested on: KM20L2 colon
SNB-78 CNS = tested on: SNB-78 CNS
SK-MEL-28 melanoma = tested on: SK-MEL-28 melanoma
DLD-1 colon = tested on: DLD-1 colon
DMS 273 small cell lung = tested on: DMS 273 small cell lung
M19-MEL melanoma = tested on: M19-MEL melanoma
OVCAR-8 ovarian = tested on: OVCAR-8 ovarian
LXFL 529 NSCLC = tested on: LXFL 529 NSCLC
XF 498 CNS = tested on: XF 498 CNS
UACC-62 melanoma = tested on: UACC-62 melanoma
MALME-3M melanoma = tested on: MALME-3M melanoma
HCT-15 colon = tested on: HCT-15 colon
HOP-92 NSCLC = tested on: HOP-92 NSCLC
HOP-18 NSCLC = tested on: HOP-18 NSCLC

COc1ccc(CNc2nc3c(NC(C)=O)cc(C(F)(F)F)cc3nc2-c2ccccc2)cc1OC
TGI (NCI-H460 lung): > 100 µM | TGI (OVCAR-4 ovarian): 95.7 µM | TGI (DMS 114 small cell lung): > 100 µM | TGI (RPMI-8226 leukemia): > 100 µM | TGI (KM20L2 colon): > 100 µM | TGI (SNB-78 CNS): > 100 µM | TGI (SK-MEL-28 melanoma): > 100 µM | TGI (DLD-1 colon): > 100 µM | TGI (DMS 273 small cell lung): > 100 µM | TGI (M19-MEL melanoma): > 100 µM | TGI (OVCAR-8 ovarian): > 100 µM | TGI (LXFL 529 NSCLC): > 100 µM | TGI (XF 498 CNS): > 100 µM | TGI (UACC-62 melanoma): > 100 µM | TGI (MALME-3M melanoma): > 100 µM | TGI (HCT-15 colon): > 100 µM

O=c1[nH]n(Cc2ccccn2)c2ccc([N+](=O)[O-])cc12
TGI (NCI-H460 lung): > 100 µM | TGI (OVCAR-4 ovarian): > 100 µM | TGI (RPMI-8226 leukemia): > 100 µM | TGI (SK-MEL-28 melanoma): > 100 µM | TGI (HOP-92 NSCLC): > 100 µM | TGI (OVCAR-8 ovarian): > 100 µM | TGI (UACC-62 melanoma): > 100 µM | TGI (MALME-3M melanoma): > 100 µM | TGI (HCT-15 colon): > 100 µM

N#CC(Cc1ccccc1Br)N(CCC1=CCCCC1)C(c1ccccc1)c1ccccc1 (stereo not given)
TGI (NCI-H460 lung): > 100 µM | TGI (OVCAR-4 ovarian): > 100 µM | TGI (RPMI-8226 leukemia): 83.5 µM | TGI (SK-MEL-28 melanoma): > 100 µM | TGI (HOP-92 NSCLC): > 100 µM | TGI (OVCAR-8 ovarian): > 100 µM | TGI (UACC-62 melanoma): > 100 µM | TGI (MALME-3M melanoma): > 100 µM | TGI (HCT-15 colon): > 100 µM

COc1cc2c(cc1OC)C(=O)C(C1=C(SC(=N)N)C(=O)c3cc(OC)c(OC)cc31)C2 (stereo not given)
TGI (NCI-H460 lung): > 100 µM | TGI (OVCAR-4 ovarian): > 100 µM | TGI (DMS 114 small cell lung): > 100 µM | TGI (RPMI-8226 leukemia): > 100 µM | TGI (KM20L2 colon): > 100 µM | TGI (SNB-78 CNS): > 100 µM | TGI (SK-MEL-28 melanoma): > 100 µM | TGI (DLD-1 colon): > 100 µM | TGI (DMS 273 small cell lung): > 100 µM | TGI (M19-MEL melanoma): > 100 µM | TGI (OVCAR-8 ovarian): > 100 µM | TGI (LXFL 529 NSCLC): > 100 µM | TGI (XF 498 CNS): > 100 µM | TGI (UACC-62 melanoma): > 100 µM | TGI (MALME-3M melanoma): > 100 µM | TGI (HCT-15 colon): > 100 µM

O=[N+]([O-])/C(C(Cl)=C(Cl)Cl)=C(/Sc1ccccc1)N1CCCCC1
TGI (NCI-H460 lung): > 100 µM | TGI (OVCAR-4 ovarian): > 100 µM | TGI (RPMI-8226 leukemia): > 100 µM | TGI (SK-MEL-28 melanoma): > 100 µM | TGI (HOP-92 NSCLC): > 100 µM | TGI (OVCAR-8 ovarian): > 100 µM | TGI (UACC-62 melanoma): > 100 µM | TGI (MALME-3M melanoma): > 100 µM | TGI (HCT-15 colon): > 100 µM

O=C1CC(=O)N(CCc2ccccc2)S(=O)(=O)N1CCc1ccccc1
TGI (NCI-H460 lung): > 100 µM | TGI (OVCAR-4 ovarian): 44.6 µM | TGI (HOP-18 NSCLC): > 100 µM | TGI (DMS 114 small cell lung): 48.6 µM | TGI (RPMI-8226 leukemia): 52 µM | TGI (SK-MEL-28 melanoma): > 100 µM | TGI (HOP-92 NSCLC): 32.3 µM | TGI (DLD-1 colon): > 100 µM | TGI (DMS 273 small cell lung): 43.8 µM | TGI (M19-MEL melanoma): > 100 µM | TGI (LXFL 529 NSCLC): 40.7 µM | TGI (UACC-62 melanoma): 77.7 µM | TGI (MALME-3M melanoma): 79.5 µM | TGI (HCT-15 colon): > 100 µM

CC#CCCN(CC#N)Cc1ccccc1
TGI (NCI-H460 lung): > 100 µM | TGI (OVCAR-4 ovarian): > 100 µM | TGI (RPMI-8226 leukemia): > 100 µM | TGI (SK-MEL-28 melanoma): > 100 µM | TGI (HOP-92 NSCLC): > 100 µM | TGI (OVCAR-8 ovarian): > 100 µM | TGI (UACC-62 melanoma): 32.9 µM | TGI (MALME-3M melanoma): > 100 µM | TGI (HCT-15 colon): > 100 µM

O=C(c1ccc(Br)cc1)n1c2ccc(Br)cc2c2nc3ccccc3nc21
TGI (NCI-H460 lung): > 100 µM | TGI (OVCAR-4 ovarian): > 100 µM | TGI (RPMI-8226 leukemia): > 100 µM | TGI (SK-MEL-28 melanoma): > 100 µM | TGI (HOP-92 NSCLC): > 100 µM | TGI (OVCAR-8 ovarian): > 100 µM | TGI (UACC-62 melanoma): > 100 µM | TGI (MALME-3M melanoma): > 100 µM | TGI (HCT-15 colon): > 100 µM

COc1cc2c(cc1O)[C@@H]1Cc3c(cc(OC)c(OC)c3Oc3cc4c(cc3OC)CCN(C)[C@@H]4Cc3ccc(O)cc3)[C@H](C2)N1C
TGI (NCI-H460 lung): > 100 µM | TGI (OVCAR-4 ovarian): > 100 µM | TGI (RPMI-8226 leukemia): > 79.6 µM | TGI (SK-MEL-28 melanoma): 34.9 µM | TGI (HOP-92 NSCLC): > 100 µM | TGI (OVCAR-8 ovarian): > 100 µM | TGI (UACC-62 melanoma): > 100 µM | TGI (MALME-3M melanoma): 32.2 µM | TGI (HCT-15 colon): > 100 µM
